From PubChem BioAssay (NCI)
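Briefly, cells in 96-well plates were exposed to five compound concentrations for 48 h, and endpoints were estimated by linear interpolation. At the GI50, growth is halved. TGI denotes the concentration required for complete inhibition of growth.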

What was measured:
Experiment in all cases: DTP human tumour cell line panel, 48 h
SNB-19 CNS = test system: SNB-19 CNS
SF-539 CNS = test system: SF-539 CNS
OVCAR-5 ovarian = test system: OVCAR-5 ovarian
EKVX NSCLC = test system: EKVX NSCLC
SF-295 CNS = test system: SF-295 CNS
NCI/ADR-RES ovarian = test system: NCI/ADR-RES ovarian
UACC-257 melanoma = test system: UACC-257 melanoma
786-0 renal = test system: 786-0 renal
SW-620 colon = test system: SW-620 colon
A498 renal = test system: A498 renal

COc1ccc(C(=CCC(C)C2CCC3[C@@H]4C(OC(C)=O)CC5CC(OC(C)=O)CC[C@]5(C)C4CC(OC(C)=O)[C@]23C)c2ccc(OC)cc2)cc1 (some centres not stated)
TGI (SNB-19 CNS): > 100 µM
TGI (SF-539 CNS): > 100 µM
TGI (OVCAR-5 ovarian): > 100 µM
TGI (EKVX NSCLC): > 100 µM
TGI (SF-295 CNS): > 100 µM
TGI (NCI/ADR-RES ovarian): > 100 µM
TGI (UACC-257 melanoma): > 100 µM
TGI (786-0 renal): > 100 µM
TGI (SW-620 colon): > 100 µM

CCCC(O)[C@@]1(CC)CC(C)C(O)(C2(C)C[C@H](C)[C@@H](C(CC)C(=O)C(C)[C@@H](O)[C@H](C)C3OC(O)(C(CC)C(=O)O)[C@@H](C)C(O)C3CC)O2)O1 (some centres not stated)
TGI (SNB-19 CNS): 3.15 µM
TGI (SF-539 CNS): 2.76 µM
TGI (OVCAR-5 ovarian): 5.35 µM
TGI (A498 renal): 2.15 µM
TGI (EKVX NSCLC): 4.21 µM
TGI (SF-295 CNS): 4.91 µM
TGI (NCI/ADR-RES ovarian): 1.82 µM
TGI (UACC-257 melanoma): 1.94 µM
TGI (786-0 renal): 5.07 µM
TGI (SW-620 colon): 2.9 µM

O=c1[nH]c2ccccc2cc1-c1nnc(Cc2ccccc2)o1
GI50 (SNB-19 CNS): 12.9 µM
TGI (SNB-19 CNS): 38.1 µM
GI50 (A498 renal): 13.3 µM
TGI (A498 renal): 27.1 µM
GI50 (SF-295 CNS): 11.2 µM
TGI (SF-295 CNS): 32.2 µM
GI50 (NCI/ADR-RES ovarian): 14.4 µM
TGI (NCI/ADR-RES ovarian): 71.1 µM
GI50 (UACC-257 melanoma): 4.79 µM
TGI (UACC-257 melanoma): 24.4 µM
GI50 (786-0 renal): 4 µM
TGI (786-0 renal): 14.6 µM
GI50 (SW-620 colon): 1.87 µM
TGI (SW-620 colon): 4.16 µM

N=C(N)n1cc(/C=N/N=C(N)N)cn1
TGI (SNB-19 CNS): > 100 µM
TGI (SF-539 CNS): > 100 µM
TGI (OVCAR-5 ovarian): > 100 µM
TGI (A498 renal): > 100 µM
TGI (EKVX NSCLC): > 100 µM
TGI (SF-295 CNS): > 100 µM
TGI (NCI/ADR-RES ovarian): > 100 µM
TGI (UACC-257 melanoma): > 100 µM
TGI (786-0 renal): > 100 µM
TGI (SW-620 colon): > 100 µM

CC(=O)C1(C(=O)C(=[N+]=[N-])S(=O)(=O)c2ccccc2)CC1
TGI (SNB-19 CNS): > 100 µM
TGI (SF-539 CNS): > 100 µM
TGI (OVCAR-5 ovarian): > 100 µM
TGI (EKVX NSCLC): > 100 µM
TGI (SF-295 CNS): > 100 µM
TGI (NCI/ADR-RES ovarian): > 100 µM
TGI (UACC-257 melanoma): > 100 µM
TGI (786-0 renal): > 100 µM
TGI (SW-620 colon): > 100 µM

OCC1OC(OC2(CO)OC(CO)C(O)C2O)C(O)C(O)C1O (configuration not stated)
GI50 (SNB-19 CNS): > 100 µM
TGI (SNB-19 CNS): > 100 µM
GI50 (SF-539 CNS): > 100 µM
TGI (SF-539 CNS): > 100 µM
GI50 (OVCAR-5 ovarian): > 100 µM
TGI (OVCAR-5 ovarian): > 100 µM
GI50 (EKVX NSCLC): > 100 µM
TGI (EKVX NSCLC): > 100 µM
GI50 (SF-295 CNS): > 100 µM
TGI (SF-295 CNS): > 100 µM
GI50 (NCI/ADR-RES ovarian): > 100 µM
TGI (NCI/ADR-RES ovarian): > 100 µM
GI50 (UACC-257 melanoma): > 100 µM
TGI (UACC-257 melanoma): > 100 µM
GI50 (786-0 renal): > 100 µM
TGI (786-0 renal): > 100 µM
GI50 (SW-620 colon): > 100 µM
TGI (SW-620 colon): > 100 µM

Nc1ncnc2c1c(-c1ccc(Oc3ccccc3)cc1)nn2CC1SSCC1O (configuration not stated)
GI50 (SNB-19 CNS): 5.51 µM
TGI (SNB-19 CNS): 13 µM
GI50 (SF-539 CNS): 1.05 µM
TGI (SF-539 CNS): 8.19 µM
GI50 (OVCAR-5 ovarian): 7.2 µM
TGI (OVCAR-5 ovarian): 28.8 µM
GI50 (A498 renal): 5.1 µM
TGI (A498 renal): 11.6 µM
GI50 (EKVX NSCLC): 1.04 µM
TGI (EKVX NSCLC): 6.25 µM
GI50 (SF-295 CNS): 6.36 µM
TGI (SF-295 CNS): 15.8 µM
GI50 (NCI/ADR-RES ovarian): 6.61 µM
TGI (NCI/ADR-RES ovarian): 17.6 µM
GI50 (UACC-257 melanoma): 2.07 µM
TGI (UACC-257 melanoma): 10.6 µM
GI50 (786-0 renal): 4.86 µM
TGI (786-0 renal): 11.2 µM
GI50 (SW-620 colon): 1.58 µM
TGI (SW-620 colon): 32.5 µM

Nc1nc(-c2ccccc2)c(CC(=O)O)s1
TGI (SNB-19 CNS): > 100 µM
TGI (SF-539 CNS): > 100 µM
TGI (OVCAR-5 ovarian): > 100 µM
TGI (A498 renal): > 100 µM
TGI (EKVX NSCLC): > 100 µM
TGI (SF-295 CNS): > 100 µM
TGI (NCI/ADR-RES ovarian): > 100 µM
TGI (UACC-257 melanoma): > 100 µM
TGI (786-0 renal): > 100 µM
TGI (SW-620 colon): > 100 µM

O=C(CCCCN1CCN(CCCCC(=O)Nc2ccccc2C#C/C=C\C#Cc2ccccc2C(F)(F)F)CC1)Nc1ccccc1C#C/C=C\C#Cc1ccccc1C(F)(F)F
GI50 (SNB-19 CNS): 11.7 µM
TGI (SNB-19 CNS): 32.1 µM
GI50 (SF-539 CNS): 10.2 µM
TGI (SF-539 CNS): 19.3 µM
GI50 (OVCAR-5 ovarian): 14.4 µM
TGI (OVCAR-5 ovarian): > 50 µM
GI50 (A498 renal): 11.7 µM
TGI (A498 renal): 22.9 µM
GI50 (EKVX NSCLC): 18 µM
TGI (EKVX NSCLC): > 50 µM
GI50 (SF-295 CNS): 19 µM
TGI (SF-295 CNS): > 50 µM
GI50 (NCI/ADR-RES ovarian): 9.64 µM
TGI (NCI/ADR-RES ovarian): 20 µM
GI50 (UACC-257 melanoma): 10.8 µM
TGI (UACC-257 melanoma): 22.5 µM
GI50 (786-0 renal): 9.8 µM
TGI (786-0 renal): 18.3 µM
GI50 (SW-620 colon): 9.39 µM
TGI (SW-620 colon): 18.4 µM

O=C(O)c1ccccc1NCn1nc(-c2ccccc2O)oc1=S
GI50 (SNB-19 CNS): > 100 µM
TGI (SNB-19 CNS): > 100 µM
GI50 (OVCAR-5 ovarian): > 100 µM
TGI (OVCAR-5 ovarian): > 100 µM
GI50 (EKVX NSCLC): > 100 µM
TGI (EKVX NSCLC): > 100 µM
GI50 (SF-295 CNS): > 100 µM
TGI (SF-295 CNS): > 100 µM
GI50 (NCI/ADR-RES ovarian): 54 µM
TGI (NCI/ADR-RES ovarian): > 100 µM
GI50 (UACC-257 melanoma): > 100 µM
TGI (UACC-257 melanoma): > 100 µM
GI50 (786-0 renal): 35.4 µM
TGI (786-0 renal): > 100 µM
GI50 (SW-620 colon): 33.8 µM
TGI (SW-620 colon): > 100 µM

CCOC(=O)c1cn(C)c2c(OC)c3ccccc3c(OC)c2c1=O
GI50 (SNB-19 CNS): 36.6 µM
TGI (SNB-19 CNS): > 100 µM
GI50 (SF-539 CNS): 34 µM
TGI (SF-539 CNS): > 100 µM
GI50 (OVCAR-5 ovarian): 30.9 µM
TGI (OVCAR-5 ovarian): > 100 µM
GI50 (SF-295 CNS): 21.4 µM
TGI (SF-295 CNS): 55.2 µM
GI50 (NCI/ADR-RES ovarian): 20.4 µM
TGI (NCI/ADR-RES ovarian): 56.5 µM
GI50 (UACC-257 melanoma): 16.6 µM
TGI (UACC-257 melanoma): 40.6 µM
GI50 (786-0 renal): > 100 µM
TGI (786-0 renal): > 100 µM

CCc1ccc(Oc2c(-c3ccc(OCc4ccc(Cl)cc4)cc3O)nn(C)c2C(F)(F)F)cc1
GI50 (SNB-19 CNS): 0.591 µM
TGI (SNB-19 CNS): 2.14 µM
GI50 (SF-539 CNS): 1.77 µM
TGI (SF-539 CNS): 3.75 µM
GI50 (OVCAR-5 ovarian): 1.75 µM
TGI (OVCAR-5 ovarian): 3.85 µM
GI50 (A498 renal): 1.28 µM
TGI (A498 renal): 2.93 µM
GI50 (EKVX NSCLC): 1.03 µM
TGI (EKVX NSCLC): 2.98 µM
GI50 (SF-295 CNS): 0.947 µM
TGI (SF-295 CNS): 2.51 µM
GI50 (NCI/ADR-RES ovarian): 0.905 µM
TGI (NCI/ADR-RES ovarian): 4.47 µM
GI50 (UACC-257 melanoma): 1.18 µM
TGI (UACC-257 melanoma): 3.53 µM
GI50 (786-0 renal): 1.22 µM
TGI (786-0 renal): 2.87 µM
GI50 (SW-620 colon): 0.382 µM
TGI (SW-620 colon): 1.76 µM

O=C1c2cccc3c(N4CCOCC4)ccc(c23)C(=O)N1CCN1CCN(CCCCCN2CCN(CCN3C(=O)c4cccc5c(N6CCOCC6)ccc(c45)C3=O)CC2)CC1
GI50 (SNB-19 CNS): > 100 µM
TGI (SNB-19 CNS): > 100 µM
GI50 (SF-539 CNS): > 100 µM
TGI (SF-539 CNS): > 100 µM
GI50 (OVCAR-5 ovarian): > 100 µM
TGI (OVCAR-5 ovarian): > 100 µM
GI50 (A498 renal): > 100 µM
TGI (A498 renal): > 100 µM
GI50 (EKVX NSCLC): > 100 µM
TGI (EKVX NSCLC): > 100 µM
GI50 (SF-295 CNS): 72 µM
TGI (SF-295 CNS): > 100 µM
GI50 (NCI/ADR-RES ovarian): > 100 µM
TGI (NCI/ADR-RES ovarian): > 100 µM
GI50 (UACC-257 melanoma): 74 µM
TGI (UACC-257 melanoma): > 100 µM
GI50 (786-0 renal): 55.8 µM
TGI (786-0 renal): > 100 µM
GI50 (SW-620 colon): 70.8 µM
TGI (SW-620 colon): > 100 µM

COc1ccc(N(CC(=O)O)N=O)cc1
TGI (SNB-19 CNS): > 100 µM
TGI (SF-539 CNS): > 100 µM
TGI (OVCAR-5 ovarian): > 100 µM
TGI (A498 renal): > 100 µM
TGI (EKVX NSCLC): > 100 µM
TGI (SF-295 CNS): > 100 µM
TGI (NCI/ADR-RES ovarian): > 100 µM
TGI (UACC-257 melanoma): > 100 µM
TGI (786-0 renal): > 100 µM
TGI (SW-620 colon): > 100 µM

CO[C@H]1C(=O)[C@]2(C)[C@@H](OC)C[C@H]3OC[C@@]3(OC(C)=O)[C@H]2[C@H](OC(=O)c2ccccc2)[C@]2(O)C[C@H](OC(=O)[C@H](O)[C@@H](NC(=O)OC(C)(C)C)c3ccccc3)C(C)=C1C2(C)C
GI50 (SNB-19 CNS): < 0.0134 µM
TGI (SNB-19 CNS): > 100 µM
GI50 (OVCAR-5 ovarian): < 0.01 µM
TGI (OVCAR-5 ovarian): 41.5 µM
GI50 (A498 renal): < 0.01 µM
TGI (A498 renal): 10.1 µM
GI50 (EKVX NSCLC): 0.425 µM
TGI (EKVX NSCLC): > 100 µM
GI50 (SF-295 CNS): < 0.01 µM
TGI (SF-295 CNS): 23.9 µM
GI50 (NCI/ADR-RES ovarian): 0.0269 µM
TGI (NCI/ADR-RES ovarian): 1.24 µM
TGI (UACC-257 melanoma): > 63 µM
GI50 (786-0 renal): < 0.01 µM
TGI (786-0 renal): 87.3 µM
GI50 (SW-620 colon): < 0.01 µM
TGI (SW-620 colon): > 100 µM
